BindingDB's records for doi:10.1021/jm9806650 (Institute of Chemical Technology, 1999)

Experiment: The compound was tested in vitro for inhibition of HIV-1 replication

Structure (SMILES) | IC50 [µM]
COc1ccc(-c2c3n(c4c(=O)oc5cc(OS(=O)(=O)O)c(OC)cc5c24)CCc2cc(OC)c(OC)cc2-3)cc1O | 12
COc1ccc(-c2c3c4cc(OC)c(O)cc4oc(=O)c3n3ccc4cc(O)c(OC)cc4c23)cc1O [3,10-Dihydroxy-13-(3-hydroxy-4-methoxy-phenyl)-2,11-dimethoxy-5-oxa-6b-aza-dibenzo[a,i]fluoren-6-one] | 1
COc1ccc(-c2c3c4cc(OC)c(O)cc4oc(=O)c3n3ccc4c(OC)c(OC)c(OC)cc4c23)cc1O [3-Hydroxy-13-(3-hydroxy-4-methoxy-phenyl)-2,9,10,11-tetramethoxy-5-oxa-6b-aza-dibenzo[a,i]fluoren-6-one] | 20
COc1ccc(-c2c3n(c4c(=O)oc5cc(O)c(OC)cc5c24)CCc2c-3cc(OC)c(OC)c2OC)cc1O [3-Hydroxy-13-(3-hydroxy-4-methoxy-phenyl)-2,9,10,11-tetramethoxy-7,8-dihydro-5-oxa-6b-aza-dibenzo[a,i]fluoren-6-one] | 18
COc1ccc(-c2c3n(c4c(=O)oc5cc(OS(=O)(=O)O)c(OC)cc5c24)C(O)Cc2c-3cc(OC)c(OC)c2OC)cc1O (stereo not given) [7-Hydroxy-13-(3-hydroxy-4-methoxy-phenyl)-2,9,10,11-tetramethoxy-7,8-dihydro-5-oxa-6b-aza-dibenzo[a,i]fluoren-6-one sodium sulfonate] | 20
